Data reported in patent publication US9593140B2, “Antibacterial tylosin derivatives and methods for their preparation” (Bayer Intellectual Property GmbH, priority 2011, dated 2017).

Key:
Type in all cases: cell-based
[1] = tested on: Mannhemia hemolytica KB345; experiment: Paper disc assay, M. hemolytica KB345 (Tilmicosin-sensitivity strain); settings: for zone of inhibition at 1 mg/disc: 1 mg/6 mm disk; for Inhibition zone (mm): Table 4
Protocol: (§1) (1) Antibacterial Activities Against Mannheimia and Pasteurella were Determined by the Following Steps:
(§2) 1) M. hemolytica KB345 (Tilmicosin-sensitivity strain) and M. hemolytica KB346 (Tilmicosin-low sensitivity strain) were provided. KB 345 strain stored at −80° C. was seeded to BHIB agar medium (10 mL) by using Microbank beads (Pro-Lab) and platinum nail. After statically incubating the KB 345 strain for 24 hours at 37° C., it was seeded to maintaining slant BHIB agar medium (7 mL) by using platinum loop, further statically incubated for 24 hours at 37° C. to obtain slant. One platinum loop of KB 345 strain stored at the slant was inoculated into a large test tube charged with BHIB liquid medium (10 mL) and then incubated for 24 hours at 37° C. with shaking.
(§3) 2) A paper disc (ADVANTEC, Φ:6 mm) was impregnated with a solution of test compound and dried under reduced pressure.
(§4) 3) To a melted BHIB agar medium was inoculated 1% of the broth obtained from step 1) above to prepare a test plate. After the medium set, the paper disc prepared in step 2) above was put on the plate and it was incubated at 37° C.
(§5) 4) After one day, the inhibition zone diameter and clarity (A to E) were determined.

[2] = tested on: Bacillus subtilis ATCC6633; experiment: Paper disc assay, Bacillus subtilis (S)
Protocol: (§6) (2) Antibacterial activities against other bacteria were determined with Micrococcus luteus ATCC9341 (1), Bacillus subtilis […] (s), Escherichia coli NIHJ (c), Xanthomonas campestris KB88 (X), Mucor racemosus IFO 4581 (Mu) and Candida albicans ATCC 64548 (Ca).
(§7) Bacillus subtilis ATCC6633 was incubated in Davis synthetic medium and then the seed broth was combined with the medium in the ratio of 1:99 to obtain a test plate. Micrococcus luteus ATCC9341, Escherichia coli NIHJ and Xanthomonas campestris KB88 were respectively incubated in Nutrient agar medium and inoculated at 0.2%, 0.5% and 1.0%. Mucor racemosus IFO 4581 and Candida albicans ATCC 64548 were respectively incubated in GY agar medium and then inoculated at 0.3% and 0.2%.
(§8) A paper disc (ADVANTEC, Φ:6 mm) was impregnated with a solution of test compound and dried under reduced pressure. The paper disc was put on the test plate and it was incubated for 24 hours at 37° C. After incubation, the inhibition zone diameter and clarity (A to E) were determined.

[3] = tested on: Micrococcus luteus ATCC9341; experiment: Paper disc assay, Micrococcus luteus (l)
Protocol: as §6, §7, §8

Escherichia coli NIHJ = experiment: Paper disc assay, Escherichia coli (c)
Protocol: as §6, §7, §8

[4] = tested on: Xanthomonas campestris KB88; experiment: Paper disc assay, Xanthomonas campestris (X)
Protocol: as §6, §7, §8

[5] = tested on: Mannhemia hemolytica KB346; experiment: Paper disc assay, M. hemolytica KB346 (Tilmicosin-low sensitivity strain); settings: Table 5; 100 mg/6 mm disk
Protocol: as §1, §2, §3, §4, §5
For KB346 strain, the same procedures were repeated.

[6] = tested on: Mannheimia Haemolytica, 3 isolates; experiment: Minimal inhibitory concentrations, cattle pathogen isolates
Protocol: (§9) The antibacterial activity by the compounds of the present invention may be measured using a number of assays available in the art. […] Minimal inhibitory concentrations (MICs) were determined against the most prevalent pathogens in cattle (Mannheimia Haemolytica, 3 isolates) and swine (A. pleuropneumoniae, 6 isolates).The results are summarized in Table 7.

[7] = tested on: A. pleuropneumoniae, 6 isolates; experiment: Minimal inhibitory concentrations, swine pathogen isolates
Protocol: as §9

| SMILES | zone of inhibition at 1 mg/disc ([1]; 24 h, Table 2) | zone of inhibition at 3 mg/disc ([1]; 24 h, Table 2, 3 mg/6 mm disk) | Inhibition zone (mm) ([2]; 0.1 mg/6 mm disc) | Inhibition zone (mm) ([2]; 1 mg/6 mm disc) | Inhibition zone (mm) ([2]; 10 mg/6 mm disc) | Inhibition zone (mm) ([3]; 0.1 mg/6 mm disc) | Inhibition zone (mm) ([3]; 1 mg/6 mm disc) | Inhibition zone (mm) ([3]; 10 mg/6 mm disc) | Inhibition zone (mm) (Escherichia coli NIHJ; 10 mg/6 mm disc) | Inhibition zone (mm) ([4]; 0.1 mg/6 mm disc) | Inhibition zone (mm) ([4]; 1 mg/6 mm disc) | Inhibition zone (mm) ([4]; 10 mg/6 mm disc) | further results |
| --- | --- | --- | --- | --- | --- | --- | --- | --- | --- | --- | --- | --- | --- |
| CC[C@H]1OC(=O)C[C@@H](O)[C@H](C)[C@@H](O[C@@H]2O[C@H](C)[C@@H](O)C(N(C)C)C2O)[C@@H](CCN2CC(C)CC(C)C2)C[C@@H](C)C(=O)/C=C/C(C)=C/[C@@H]1CO[C@@H]1OC(C)[C@@H](O)[C@H](OC)C1OC (stereo partly drawn) [Tilmicosin, reference compound] | 10.7 mm | 13.5 mm | 14 mm | 11 mm | 18 mm | 12 mm | 19 mm | 27.5 mm | 20 mm | 12 mm | 20 mm | 30 mm | Inhibition zone (mm) (Escherichia coli NIHJ; 1 mg/6 mm disc): 13 mm |
| CC[C@H]1OC(=O)C[C@@H](O)[C@H](C)[C@@H](O[C@@H]2O[C@H](C)[C@@H](O)[C@H](N(C)C)[C@H]2O)[C@@H](CCn2cc(-c3ccsc3)nn2)C[C@@H](C)C(=O)/C=C/C(C)=C/[C@@H]1CO[C@@H]1O[C@H](C)[C@@H](O)[C@@H](OC)[C@H]1OC [YT14, 20-(4-(thiophene-3-yl)-1H-1,2,3-triazol-1-yl)-20-deoxodesmycosin] | 11 mm | 14 mm | 8 mm | 11 mm | 15 mm | 13.5 mm | 20.5 mm | 26.5 mm | 7 mm | 7 mm | 16 mm | 22 mm | zone of inhibition at 10 mg/disc ([1]; 24 h, Table 2, 10 mg/6 mm disk): 16.5 mm; zone of inhibition at 30 mg/disc ([1]; 24 h, Table 2, 30 mg/6 mm disk): 19.5 mm; zone of inhibition at 100 mg/disc ([1]; 24 h, Table 2, 100 mg/6 mm disk): 22 mm |
| CC[C@H]1OC(=O)C[C@@H](O)[C@H](C)[C@@H](O[C@@H]2O[C@H](C)[C@@H](O)[C@H](N(C)C)[C@H]2O)[C@@H](CCn2cc(-c3ccccc3)nn2)C[C@@H](C)C(=O)/C=C/C(C)=C/[C@@H]1CO [YT112, 20-(4-phenyl-1H-1,2,3-triazol-1-yl)-20-deoxo-5-O-mycaminosyltylonolide] |  |  |  |  |  |  |  |  |  |  |  |  | Inhibition zone (mm) ([1]; 3 mg/6 mm disk): 17.0 mm; Inhibition zone (mm) ([1]; 10 mg/6 mm disk): 20.0 mm; Inhibition zone (mm) ([1]; 30 mg/6 mm disk): 25.0 mm; Inhibition zone (mm) ([1]; 100 mg/6 mm disk): 29.0 mm; Inhibition zone (mm) [5]: 11.5 mm; MICs ([6]; M. haemolytica isolate 1): 8 µg/mL; MICs ([6]; M. haemolytica isolate 2): 4 µg/mL; MICs ([6]; M. haemolytica isolate 3): 8 µg/mL; MICs ([7]; pleuropneumoniae isolate 1): 4 µg/mL; MICs ([7]; pleuropneumoniae isolate 2): 4 µg/mL; MICs ([7]; pleuropneumoniae isolate 3): 4 µg/mL; MICs ([7]; pleuropneumoniae isolate 4): 8 µg/mL; MICs ([7]; pleuropneumoniae isolate 5): 4 µg/mL; MICs ([7]; pleuropneumoniae isolate 6): 8 µg/mL |
